Source: US11718604B2, “4-amino-6-(1,3-benzodioxole)picolinates and their use as herbicides” (Dow AgroSciences LLC, priority 2018, dated 2023)

Key:
Type in all cases: in vivo
[1] = tested on: SETFA: giant foxtail (Setaria faberi); test: Post-emergent herbicidal test, giant foxtail; settings: post-emergence, 336 h, 14 days after application, read-out: Visual Growth Reduction (%) 14 Days After Application SETFA
Method in brief: (§1)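 Plants are raised in potting mix of pH 6.0 to 6.8 in a greenhouse until the first or second true leaf, then sprayed with formulated compound at 187 L/ha at several rates (½× to 1/16× of the top rate). After 14 d, damage is rated visually as percent injury against untreated plants.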

[2] = tested on: DIGSA: large crabgrass (Digitaria sanguinalis); test: Post-emergent herbicidal test, large crabgrass; settings: post-emergence, 336 h, 14 days after application, read-out: Visual Growth Reduction (%) 14 Days After Application DIGSA
Method in brief: as §1

[3] = tested on: ECHCG: barnyardgrass (Echinochloa crus-galli); test: Post-emergent herbicidal test, barnyardgrass; settings: post-emergence, 336 h, 14 days after application, read-out: Visual Growth Reduction (%) 14 Days After Application ECHCG
Method in brief: as §1

[4] = tested on: CIRAR: Canada thistle (Cirsium arvense); test: Post-emergent herbicidal test, Canada thistle; settings: post-emergence, 336 h, 14 days after application, read-out: Visual Growth Reduction (%) 14 Days After Application CIRAR
Method in brief: as §1

[5] = tested on: CYPES: yellow nutsedge (Cyperus esculentus); test: Post-emergent herbicidal test, yellow nutsedge; settings: post-emergence, 336 h, 14 days after application, read-out: Visual Growth Reduction (%) 14 Days After Application CYPES
Method in brief: as §1

[6] = tested on: BRSNN: oilseed rape, canola (Brassica napus); test: Post-emergent herbicidal test, oilseed rape; settings: post-emergence, 336 h, 14 days after application, read-out: Visual Growth Reduction (%) 14 Days After Application BRSNN
Method in brief: as §1

[7] = tested on: IPOHE: ivyleaf morningglory (Ipomoea hederacea); test: Post-emergent herbicidal test, ivyleaf morningglory; settings: post-emergence, 336 h, 14 days after application, read-out: Visual Growth Reduction (%) 14 Days After Application IPOHE
Method in brief: as §1

[8] = tested on: ABUTH: velvetleaf (Abutilon theophrasti); test: Post-emergent herbicidal test, velvetleaf; settings: post-emergence, 336 h, 14 days after application, read-out: Visual Growth Reduction (%) 14 Days After Application ABUTH
Method in brief: as §1

[9] = tested on: VIOTR: wild violet (Viola tricolor); test: Post-emergent herbicidal test, wild violet; settings: post-emergence, 336 h, 14 days after application, read-out: Visual Growth Reduction (%) 14 Days After Application VIOTR
Method in brief: as §1

[10] = tested on: EPHHL: wild poinsettia (Euphorbia heterophylla); test: Post-emergent herbicidal test, wild poinsettia; settings: post-emergence, 336 h, 14 days after application, read-out: Visual Growth Reduction (%) 14 Days After Application EPHHL
Method in brief: as §1

[11] = tested on: SORVU: shattercane (Sorghum bicolor); test: Post-emergent herbicidal test, shattercane; settings: post-emergence, 336 h, 14 days after application, read-out: Visual Growth Reduction (%) 14 Days After Application SORVU
Method in brief: as §1

Nc1c(F)c(-c2cccc3c2OCO3)nc(C(=O)O)c1Cl [Compound 3]
pest or weed control at 17.5 g/ha ([1]; 17.5 g ai/ha): 0%
pest or weed control at 35 g/ha ([1]; 35 g ai/ha): 0%
pest or weed control at 70 g/ha ([1]; 70 g ai/ha): 0%
pest or weed control at 140 g/ha ([1]; 140 g ai/ha): 0%
pest or weed control at 17.5 g/ha ([2]; 17.5 g ai/ha): 0%
pest or weed control at 35 g/ha ([2]; 35 g ai/ha): 0%
pest or weed control at 70 g/ha ([2]; 70 g ai/ha): 0%
pest or weed control at 140 g/ha ([2]; 140 g ai/ha): 0%
pest or weed control at 17.5 g/ha ([3]; 17.5 g ai/ha): 0%
pest or weed control at 35 g/ha ([3]; 35 g ai/ha): 0%
pest or weed control at 70 g/ha ([3]; 70 g ai/ha): 0%
pest or weed control at 140 g/ha ([3]; 140 g ai/ha): 0%
pest or weed control at 17.5 g/ha ([4]; 17.5 g ai/ha): 70%
pest or weed control at 35 g/ha ([4]; 35 g ai/ha): 85%
pest or weed control at 70 g/ha ([4]; 70 g ai/ha): 95%
pest or weed control at 140 g/ha ([4]; 140 g ai/ha): 95%
pest or weed control at 17.5 g/ha ([5]; 17.5 g ai/ha): 0%
pest or weed control at 35 g/ha ([5]; 35 g ai/ha): 0%
pest or weed control at 70 g/ha ([5]; 70 g ai/ha): 0%
pest or weed control at 140 g/ha ([5]; 140 g ai/ha): 0%
pest or weed control at 17.5 g/ha ([6]; 17.5 g ai/ha): 60%
pest or weed control at 35 g/ha ([6]; 35 g ai/ha): 80%
pest or weed control at 70 g/ha ([6]; 70 g ai/ha): 95%
pest or weed control at 140 g/ha ([6]; 140 g ai/ha): 98%
pest or weed control at 17.5 g/ha ([7]; 17.5 g ai/ha): 0%
pest or weed control at 35 g/ha ([7]; 35 g ai/ha): 0%
pest or weed control at 70 g/ha ([7]; 70 g ai/ha): 0%
pest or weed control at 140 g/ha ([7]; 140 g ai/ha): 0%
pest or weed control at 17.5 g/ha ([8]; 17.5 g ai/ha): 60%
pest or weed control at 35 g/ha ([8]; 35 g ai/ha): 80%
pest or weed control at 70 g/ha ([8]; 70 g ai/ha): 95%
pest or weed control at 140 g/ha ([8]; 140 g ai/ha): 95%
pest or weed control at 17.5 g/ha ([9]; 17.5 g ai/ha): 0%
pest or weed control at 35 g/ha ([9]; 35 g ai/ha): 15%
pest or weed control at 70 g/ha ([9]; 70 g ai/ha): 30%
pest or weed control at 140 g/ha ([9]; 140 g ai/ha): 35%
pest or weed control at 17.5 g/ha ([10]; 17.5 g ai/ha): 0%
pest or weed control at 35 g/ha ([10]; 35 g ai/ha): 0%
pest or weed control at 70 g/ha ([10]; 70 g ai/ha): 0%
pest or weed control at 140 g/ha ([10]; 140 g ai/ha): 0%
pest or weed control at 17.5 g/ha ([11]; 17.5 g ai/ha): 0%
pest or weed control at 35 g/ha ([11]; 35 g ai/ha): 0%
pest or weed control at 70 g/ha ([11]; 70 g ai/ha): 0%
pest or weed control at 140 g/ha ([11]; 140 g ai/ha): 0%
